Assay: gradient 5% acetonitrile 3 min, to 50% in 2 min, to 85% in 15 min, held 3 min, 100 µL/min
Details: column: Zorbax Extend-C18 2.1 x 50 mm; eluents: water / acetonitrile, 0.1% formic acid
Procedure, shortened: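 Each retention time is based on an adduct peak selected computationally and verified by manual inspection. Measurements used HPLC–quadrupole time-of-flight mass spectrometry in positive and negative ionization mode on mixtures of ~100 pure standards. Chromatography ran on a Zorbax Extend-C18 column (2.1 × 50 mm, 1.8 μm) at 100 μL/min with water and acetonitrile, each containing 0.1% formic acid, and dead and dwell volumes of 40 μL and 900 μL.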

SMILES	RP-LC retention time [s]
COc1ccc(C(=O)Nc2ccc3nc(N4CC(C)CC(C)C4)cc(C(=O)O)c3c2)cc1 (centres undefined)	680
Cc1nn2c(=O)cc(CSc3nnc(-c4ccc5c(c4)OCO5)o3)nc2s1	713
CCN1CCN(C(=O)C2CCN(C3=NS(=O)(=O)C(c4ccc(C)c(C)c4)=C3C)CC2)CC1	598
CCCCN(Cc1ccco1)C(=O)Cn1nc(Cc2cccnc2)c2ccccc2c1=O	701
Cc1noc(C)c1S(=O)(=O)N1CCC2(CC1)CN(c1ccccc1)C2=O	924
O=C(CCn1c(=O)sc2ccccc21)Nc1ccc(Br)cc1	884
CN(Cc1ccco1)C(=O)C1c2ccccc2CC(=O)N1Cc1ccccc1 (centres undefined)	861
CN1C(=O)c2cccn2CC1CNC(=O)c1[nH]nc2c1COc1ccccc1-2 (centres undefined)	685
CSc1ccc(CNC(=O)C2CCN(c3cncnc3N3CCCCC3)CC2)cc1	734
O=C(Cc1ccccc1Cl)N1CCN(c2ccc3nncn3n2)CC1	628
Cc1cnc(C(=O)N2CCCn3ccnc3C2C2CCCC2)cn1 (centres undefined)	582
O=C(NCC1(c2cccs2)CC1)c1cnccn1	736
O=C(Nc1nnc(-c2cccs2)o1)c1cc(Cl)ccc1Cl	764
COc1ccc(C(=O)N2CCCC2c2nc(-c3ccc(OC)c(OC)c3)no2)cc1F (centres undefined)	876
CCc1ccc(-n2nc(C)c3c(C(F)(F)F)cc(OCC(=O)NCc4ccco4)nc32)cc1	1300
Cc1ccc(-c2nnc(-c3nc(NCCCN4CCCC4=O)c4ccccc4n3)o2)cc1	807
COc1ccc(C(O)CN2CCN(c3ncccn3)CC2)cc1 (centres undefined)	747
COc1ccc(OC)c(NC(=O)Cn2cnc3c(sc4nc(-c5ccccc5)ccc43)c2=O)c1	1040
O=C(NCc1nn(Cc2ccccc2)c2ccccc12)c1ccco1	853
Cc1ccc(-c2nc(-c3cccc(-c4ccnn4C)c3)no2)cc1	1210
CCN(C(=O)C1CCCN1S(=O)(=O)c1cc2c(cc1C)NC(=O)CO2)c1ccc(OC)cc1 (centres undefined)	782
Cc1ccc(CNC(=O)C2(C)CN(S(C)(=O)=O)CC(=O)N2c2ccc(C(C)C)cc2)cc1 (centres undefined)	935
CC(C)CCNC(=O)C1CCCN(c2nc3ccsc3c(=O)n2Cc2ccccc2)C1 (centres undefined)	955

SMILES	RP-LC retention time [s]
Cc1ccc(-c2cn3c(CC(=O)NC4CCC(C)CC4)csc3n2)cc1C (centres undefined)	938
Cc1ccc(C)c(Cn2nc3c(S(=O)(=O)N4CCc5ccccc5C4)cccn3c2=O)c1	1070
CC(=O)Nc1ccc(OCCOc2ccc([N+](=O)[O-])cc2)cc1	862
CC(=O)c1ccc(NC(=O)c2cn(C)nc2C)cc1	630
O=S(=O)(c1cc(-c2nnc(C3CCC3)o2)co1)N1CCN(c2cccc(Cl)c2)CC1	1120
CCc1ccc(S(=O)(=O)c2cnc(N3CCN(c4ccccc4Cl)CC3)nc2N)cc1	1290
COc1ccc(OC)c(-c2cc(C(=O)NCCn3cnc(-c4ccccc4)cc3=O)[nH]n2)c1	736
COc1ccc(CNC(=O)COc2ccc(NC(=O)C3CC3)cn2)cc1OC	666
CCOc1ccc(NC(=O)CSC2=C(C#N)C(c3cccs3)CC(=O)N2)cc1 (centres undefined)	844
CCCN1C(=O)COc2ccc(-c3noc(-c4ccccc4C)n3)cc21	1290
O=C(Nc1nc(-c2cccnc2)cs1)C(c1ccccc1)n1cccc1 (centres undefined)	662
Cc1nn(CC(=O)NCc2ccc(F)cc2F)c(=O)c2nc(-c3ccccc3)sc12	914
COC1C(=O)N(c2cccc(F)c2)C12CCN(C(=O)Nc1ccccc1)CC2 (centres undefined)	878
Cc1[nH]c(C(=O)N2CCCC(C(=O)N3CCN(c4ccccc4)CC3)C2)c(C)c1C (centres undefined)	853
CCc1ccc(N2C(=O)CN(S(C)(=O)=O)CC2(C)C(=O)NCc2ccc(Cl)cc2)cc1 (centres undefined)	874
O=C(Cc1cccc(F)c1)Nc1nnc(C2CC(=O)N(c3ccc(Cl)cc3)C2)o1 (centres undefined)	800
Cc1sc(-c2ccn[nH]2)cc1NC(=O)CCc1ccccc1	966
Cc1ccccc1CNC(=O)CCc1conc1-c1ccc(F)cc1	922
CCC(=O)N1CCc2cc(N3CC(C(=O)Nc4ccc(F)c(F)c4)CC3=O)ccc21 (centres undefined)	690
CCn1cc(C(=O)NCc2ccccc2)c(S(=O)(=O)N2CCSCC2)n1	880
Cc1ccccc1NC(=O)N1CC(F)(F)C[C@H]1CN1CCCC1	622
COc1cc(Nc2nc3c(s2)CCCC3c2ccc(F)cc2)ccc1-n1cnc(C)c1 (centres undefined)	1010
COc1cccc(CCC(=O)NC(C)C(=O)Nc2nc3ccccc3[nH]2)c1 (centres undefined)	660

SMILES	RP-LC retention time [s]
Cn1c(=O)c(C(=O)N2CCN(c3ccccn3)CC2)nc2ccccc21	1310
Cc1ccc(CC#N)c(-c2c(CC#N)ccc(C)c2C)c1C	1170
COc1cc(NC(=O)c2cc(C(C)C)n3nccc3n2)cc(OC)c1OC	915
COc1cc(-c2noc(-c3nn(-c4ccc(C)c(C)c4)ccc3=O)n2)cc(OC)c1OC	928
O=C(Cn1nc(N2CCOCC2)c2ccccc2c1=O)Nc1cccc(C(F)(F)F)c1	894
Cc1cc(Nc2ccc(NC(=O)c3cnccn3)cc2)nc(N2CCCCC2)n1	588
O=C(Nc1ccc2c(c1)OCCO2)N1CCCn2nc(-c3ccncc3)cc2C1	590
Cc1nc(CCNS(=O)(=O)c2cccnc2)no1	603
CCc1onc(C)c1C1CCCN1C(=O)Nc1cc(C)ccc1OC (centres undefined)	935
Cc1c(O)cnc2nn(-c3ccccc3)c(=N)n12	822
O=C(Nc1ccccc1)N1CCC(N2C[C@H]3C[C@H](C2)[C@H]2CCCC(=O)N2C3)CC1	590
CCOc1ccccc1NC(=O)NCC(c1cccnc1)c1c[nH]c2ccccc12 (centres undefined)	684
O=C(Cn1cccc1-c1nc(-c2ccccc2)no1)Nc1ccc2c(c1)CCC2	1100
COc1cccc(NC(=O)Cn2nc3cc(C)nc(Nc4ccc(C)c(F)c4)n3c2=O)c1	1100
Cc1ccc(-c2nc(Cn3nnc(C(=O)NCc4ccco4)c3C)c(C)o2)cc1	1000
Cc1nc(-c2ccc(N3CCN(C(=O)COc4ccccc4)CC3)nc2)sc1C	851
CN1CCC2(CC1)CN(S(=O)(=O)N(C)C)CC2C(=O)N1CCc2ccccc21 (centres undefined)	631
CCOc1ccc(C(=O)N2CCC3(CC2)N=C(c2ccccc2)NO3)cc1	799
CC(Cc1ccco1)NC(=O)c1ccc2nc(CCc3ccccc3)oc2c1 (centres undefined)	714
COc1cccc(CNc2ccc(-c3nc(-c4ccc(F)cc4)no3)cn2)c1	1180
CCN1C(=O)c2c(C(=O)N3CCOCC3)ncn2CC1(C)C(=O)NCc1ccc(F)cc1 (centres undefined)	678
CCOC(=O)C1=C[C@]2(CC)CCCN3CCc4c(n1c1ccccc41)[C@@H]32	777
COc1ccc(CCNC(=O)C2CCN(S(=O)(=O)c3cn(C(C)C)cn3)CC2)cc1OC	689

SMILES	RP-LC retention time [s]
O=C(NC1CCCCC1)c1ccc(Nc2c(-c3ccccc3)nc3cnccn23)cc1	802
CC(C)CCNC(=O)CN1C(=O)CC(c2cccs2)=Nc2ccccc21	888
Cc1ccccc1CN1CCN(CC(=O)NCc2ccc3c(c2)OCO3)C(=O)C1=O	715
CN(C)c1ccc(C(=O)N2CCC(COc3ccc(C(=O)NC4CC4)cc3)CC2)cc1	779
COc1ncccc1CNC(=O)Cc1ccsc1	610
CSc1nc(N2CCCC2)c2cnn(CCNC(=O)c3cc(-c4ccccc4)n[nH]3)c2n1	761
Cc1ccc(-c2nc(N)n(S(=O)(=O)c3ccc(C)cc3)n2)cc1	969
CCOc1ccccc1C(=O)NC1CCN(c2cc(-c3ccc(Cl)cc3)[nH]n2)C1 (centres undefined)	879
COc1ccc(-c2noc(Cc3nnc(-c4ccc(F)cc4)o3)n2)cc1	972
O=C(Nc1ccc2c(c1)OCO2)C1CCN(C(=O)C2Sc3ccccc3NC2=O)CC1 (centres undefined)	736
O=C(CCc1ccc2cc[nH]c2c1)NCc1cccs1	806
Cc1cc(S(=O)(=O)N2CCC(n3cnnc3C)CC2)ccc1Cl	739
O=S(=O)(c1ccccc1)N1CCC2(CC1)NCCN=C2NCc1ccc(F)c(Cl)c1	730
Cc1ccc(NC(=O)N2CCC(c3nc(C(=O)N4CCOCC4)c(C)o3)CC2)c(C)c1	709
Cc1noc(C)c1S(=O)(=O)N1CC(n2cc(C(=O)NCC3CC3)nn2)C1	757
CCc1ccccc1NC(=O)NCC1CCOCC1	705
O=C(CN1CCC(c2nc(-c3cccs3)no2)CC1)NCc1ccccc1Cl	690
CCCN(C)c1nccnc1OC1CCN(C(=O)c2ccoc2)C1 (centres undefined)	723
O=C(c1cccc(-n2cnnn2)c1)N1CCN(Cc2nc3ccccc3[nH]2)CC1	543
CCCCn1c(C(C)NC(=O)c2ccco2)nc2ccccc21 (centres undefined)	651

From the METLIN SMRT retention time set (Domingo-Almenara et al. 2019)
